# Results published in ChEMBL document CHEMBL1139487, “Discovery of corticotropin releasing factor 2 receptor selective sauvagine analogues for treatment of skeletal muscle atrophy” (J Med Chem, 2005).
# Square brackets hold non-standard residues; d marks the D form. Peptide text beside a SMILES is read from it. 2Nal = N[C@@H](Cc1ccc2ccccc2c1)C(=O)O; pGlu = O=C1CC[C@@H](C(=O)O)N1
# Columns and labels:
# [1] = biological target: Corticotropin-releasing factor receptor 2 (Mus musculus) (UniProt Q60748); assay: In vitro agonistic activity against mouse corticotropin releasing factor 2 receptor; type: functional
# Mus musculus [2] = assay: In vivo percentage inhibition against casting induced tibialis anterior mass loss in mouse at a dosage of 100 ug/kg/day; type: functional
# [3] = biological target: Corticotropin-releasing factor receptor 2 (Mus musculus, UniProt Q60748); assay: In vitro effective concentration for mouse corticotropin releasing factor 2 receptor
# [4] = biological target: T1, Corticotropin-releasing factor receptor 1 (Mus musculus) (UniProt P35347); assay: In vitro agonistic activity against mouse corticotropin releasing factor 1 receptor; type: functional
# T1 sequence (whole entry): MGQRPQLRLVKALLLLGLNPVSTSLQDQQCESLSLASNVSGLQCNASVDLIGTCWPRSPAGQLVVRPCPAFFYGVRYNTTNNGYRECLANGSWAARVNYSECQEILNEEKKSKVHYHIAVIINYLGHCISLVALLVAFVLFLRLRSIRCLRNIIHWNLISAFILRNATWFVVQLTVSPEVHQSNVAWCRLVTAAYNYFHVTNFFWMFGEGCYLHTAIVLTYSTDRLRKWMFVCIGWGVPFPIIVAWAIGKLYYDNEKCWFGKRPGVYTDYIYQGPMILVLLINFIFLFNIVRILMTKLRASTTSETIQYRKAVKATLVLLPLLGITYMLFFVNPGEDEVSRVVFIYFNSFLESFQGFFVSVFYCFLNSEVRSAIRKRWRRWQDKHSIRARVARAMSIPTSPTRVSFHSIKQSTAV
# Mus musculus [5] = assay: In vivo percentage inhibition against casting induced tibialis anterior mass loss in mouse at a dosage of 30 ug/kg/day; type: functional
# Mus musculus [6] = species on record: Mus musculus; assay: Selectivity ratio of EC50s for mouse corticotropin releasing factor receptors 1 and 2
# Mus musculus [7] = assay: In vivo percentage inhibition against casting induced tibialis anterior mass loss in mouse at a dosage of 10 ug/kg/day; type: functional
# [8] = biological target: T2, Corticotropin-releasing factor receptor 1 (Mus musculus, UniProt P35347); assay: In vitro effective concentration for mouse corticotropin releasing factor 1 receptor
# T2 sequence (P35347 whole entry): T1 sequence (whole entry)
# Mus musculus [9] = assay: In vivo percentage inhibition against casting induced tibialis anterior mass loss in mouse at a dosage of 300 ug/kg/day; type: functional; details: read-out: Inhibition
# Chain of Corticotropin-releasing factor receptor 2 (Mus musculus) (Q60748 whole entry): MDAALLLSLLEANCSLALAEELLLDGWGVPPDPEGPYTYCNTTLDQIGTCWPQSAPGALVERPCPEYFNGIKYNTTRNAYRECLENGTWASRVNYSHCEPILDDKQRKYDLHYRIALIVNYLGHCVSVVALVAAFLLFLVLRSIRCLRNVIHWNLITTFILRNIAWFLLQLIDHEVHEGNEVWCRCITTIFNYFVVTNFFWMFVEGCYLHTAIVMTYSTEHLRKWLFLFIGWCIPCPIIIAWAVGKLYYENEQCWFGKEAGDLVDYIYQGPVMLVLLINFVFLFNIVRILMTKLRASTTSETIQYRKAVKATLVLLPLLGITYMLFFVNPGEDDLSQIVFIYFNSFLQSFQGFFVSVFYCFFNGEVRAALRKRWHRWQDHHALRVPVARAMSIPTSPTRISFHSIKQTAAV
# Chain of Corticotropin-releasing factor receptor 2 (Q60748 whole entry): as above
Emax [1],EC50 [3],Emax [4],Selectivity (Mus musculus [6]),EC50 [8],SMILES,inhibition in vivo at 0.1 mg/kg/day (Mus musculus [2]),inhibition in vivo at 0.03 mg/kg/day (Mus musculus [5]),inhibition in vivo at 0.01 mg/kg/day (Mus musculus [7]),inhibition in vivo at 0.3 mg/kg/day (Mus musculus [9])
100%,–,8%,> 45,–,CC[C@H](C)[C@H](NC(=O)[C@@H](NC(=O)[C@H](CC(=O)O)NC(=O)[C@H](CC(C)C)NC(=O)[C@H](CC(C)C)NC(=O)[C@H](CC(C)C)NC(=O)[C@H](CCCN=C(N)N)NC(=O)[C@H](CC(N)=O)NC(=O)[C@H](CC(N)=O)NC(=O)[C@H](C)NC(=O)[C@H](C)NC(=O)[C@H](CCC(N)=O)NC(=O)[C@H](CCC(N)=O)NC(=O)[C@H](CCCCN)NC(=O)[C@H](CCC(=O)O)NC(=O)[C@H](CCCCN)NC(=O)[C@H](CCC(=O)O)NC(=O)[C@H](CCC(N)=O)NC(=O)[C@H](CCCCN)NC(=O)[C@H](CCC(=O)O)NC(=O)[C@@H](NC(=O)[C@H](CCC(=O)O)NC(=O)[C@@H](NC(=O)[C@H](CCSC)NC(=O)[C@H](CCCCN)NC(=O)[C@H](CCCN=C(N)N)NC(=O)[C@H](CC(C)C)NC(=O)[C@H](CC(C)C)NC(=O)[C@H](Cc1ccc(O)cc1)NC(=O)[C@@H](NC(=O)[C@@H]1CCCN1C(=O)[C@H](CC(C)C)NC(=O)[C@H](CC(=O)O)NC(=O)[C@@H](NC(=O)[C@H](CO)NC(=O)[C@@H](NC(=O)[C@@H]1CCCN1C(=O)[C@@H]1CCCN1C(=O)CNC(=O)[C@@H]1CCC(=O)N1)[C@@H](C)CC)[C@@H](C)CC)[C@@H](C)CC)[C@@H](C)CC)[C@@H](C)CC)[C@@H](C)O)C(=O)O,38%,24%,–,58%
93%,–,93%,83,–,CC[C@H](C)[C@H](NC(=O)[C@@H](NC(=O)[C@H](CC(=O)O)NC(=O)[C@H](CC(C)C)NC(=O)[C@H](CC(C)C)NC(=O)[C@H](CC(C)C)NC(=O)[C@H](CCCN=C(N)N)NC(=O)[C@H](CC(N)=O)NC(=O)[C@H](CC(N)=O)NC(=O)[C@H](C)NC(=O)[C@H](C)NC(=O)[C@H](CCC(N)=O)NC(=O)[C@H](CCC(N)=O)NC(=O)[C@H](CCCCN)NC(=O)[C@H](CCC(=O)O)NC(=O)[C@H](CCCCN)NC(=O)[C@H](CCC(=O)O)NC(=O)[C@H](CCC(N)=O)NC(=O)[C@H](CCCCN)NC(=O)[C@H](CCC(=O)O)NC(=O)[C@@H](NC(=O)[C@H](CCC(=O)O)NC(=O)[C@@H](NC(=O)[C@H](CCSC)NC(=O)[C@H](CCCCN)NC(=O)[C@H](CCCN=C(N)N)NC(=O)[C@H](CC(C)C)NC(=O)[C@H](CC(C)C)NC(=O)[C@@H](NC(=O)[C@H](CCC(N)=O)NC(=O)[C@@H]1CCCN1C(=O)[C@H](CC(C)C)NC(=O)[C@H](CC(=O)O)NC(=O)[C@@H](NC(=O)[C@H](CO)NC(=O)[C@@H](NC(=O)[C@@H]1CCCN1C(=O)[C@@H]1CCCN1C(=O)CNC(=O)[C@@H]1CCC(=O)N1)[C@@H](C)CC)[C@@H](C)CC)[C@@H](C)CC)[C@@H](C)CC)[C@@H](C)CC)[C@@H](C)O)C(=O)O,73%,14%,32%,–
73%,3.3 nM,100%,19,63.4 nM,CC[C@H](C)[C@H](NC(=O)[C@@H](NC(=O)[C@H](CC(=O)O)NC(=O)[C@H](CC(C)C)NC(=O)[C@H](CC(C)C)NC(=O)[C@H](CC(C)C)NC(=O)[C@H](CCCN=C(N)N)NC(=O)[C@H](CC(N)=O)NC(=O)[C@H](CC(N)=O)NC(=O)[C@H](C)NC(=O)[C@H](C)NC(=O)[C@H](CCC(N)=O)NC(=O)[C@H](CCC(N)=O)NC(=O)[C@H](CCCCN)NC(=O)[C@H](CCC(=O)O)NC(=O)[C@H](CCCCN)NC(=O)[C@H](CCC(=O)O)NC(=O)[C@H](CCC(N)=O)NC(=O)[C@H](CCCCN)NC(=O)[C@H](CCC(=O)O)NC(=O)[C@@H](NC(=O)[C@H](CCC(=O)O)NC(=O)[C@@H](NC(=O)[C@H](CCSC)NC(=O)[C@H](CCCCN)NC(=O)[C@H](CCCN=C(N)N)NC(=O)[C@H](CC(C)C)NC(=O)[C@H](Cc1ccc2ccccc2c1)NC(=O)[C@H](Cc1c[nH]c2ccccc12)NC(=O)[C@H](CC(C)C)NC(=O)[C@@H]1CCCN1C(=O)[C@H](CC(C)C)NC(=O)[C@H](CC(=O)O)NC(=O)[C@@H](NC(=O)[C@H](CO)NC(=O)[C@@H](NC(=O)[C@@H]1CCCN1C(=O)[C@@H]1CCCN1C(=O)CNC(=O)[C@@H]1CCC(=O)N1)[C@@H](C)CC)[C@@H](C)CC)[C@@H](C)CC)[C@@H](C)CC)[C@@H](C)O)C(=O)O ([pGlu]GPPISIDLPLW[2Nal]LRKMIEIEKQEKEKQQAANNRLLLDTI-OH),79%,45%,53%,–

# Further lines, the molecule ahead of its results:
SMILES,Emax [1],EC50 [3],Emax [4],Selectivity (Mus musculus [6]),EC50 [8],inhibition in vivo at 0.1 mg/kg/day (Mus musculus [2]),inhibition in vivo at 0.03 mg/kg/day (Mus musculus [5]),inhibition in vivo at 0.01 mg/kg/day (Mus musculus [7]),inhibition in vivo at 0.3 mg/kg/day (Mus musculus [9])
CC[C@H](C)[C@H](NC(=O)[C@@H](NC(=O)[C@H](CC(=O)O)NC(=O)[C@H](CC(C)C)NC(=O)[C@H](CC(C)C)NC(=O)[C@H](CC(C)C)NC(=O)[C@H](CCCN=C(N)N)NC(=O)[C@H](CC(N)=O)NC(=O)[C@H](CC(N)=O)NC(=O)[C@H](C)NC(=O)[C@H](C)NC(=O)[C@H](CCC(N)=O)NC(=O)[C@H](CCC(N)=O)NC(=O)[C@H](CCCCN)NC(=O)[C@H](CCC(=O)O)NC(=O)[C@H](CCCCN)NC(=O)[C@H](CCC(=O)O)NC(=O)[C@H](CCC(N)=O)NC(=O)[C@H](CCCCN)NC(=O)[C@H](CCC(=O)O)NC(=O)[C@@H](NC(=O)[C@H](CCC(=O)O)NC(=O)[C@@H](NC(=O)[C@H](CCSC)NC(=O)[C@H](CCCCN)NC(=O)[C@H](CCCN=C(N)N)NC(=O)[C@H](CC(C)C)NC(=O)[C@H](CC(C)C)NC(=O)[C@H](Cc1c[nH]c2ccccc12)NC(=O)[C@@H](NC(=O)[C@@H]1CCCN1C(=O)[C@H](CC(C)C)NC(=O)[C@H](CC(=O)O)NC(=O)[C@@H](NC(=O)[C@H](CO)NC(=O)[C@@H](NC(=O)[C@@H]1CCCN1C(=O)[C@@H]1CCCN1C(=O)CNC(=O)[C@@H]1CCC(=O)N1)[C@@H](C)CC)[C@@H](C)CC)[C@@H](C)O)[C@@H](C)CC)[C@@H](C)CC)[C@@H](C)O)C(=O)O,100%,15.2 nM,43%,> 66,> 1000 nM,91%,84%,30%,–
CC[C@H](C)[C@H](NC(=O)[C@@H](NC(=O)[C@H](CC(=O)O)NC(=O)[C@H](CC(C)C)NC(=O)[C@H](CC(C)C)NC(=O)[C@H](CC(C)C)NC(=O)[C@H](CCCN=C(N)N)NC(=O)[C@H](CC(N)=O)NC(=O)[C@H](CC(N)=O)NC(=O)[C@H](C)NC(=O)[C@H](C)NC(=O)[C@H](CCC(N)=O)NC(=O)[C@H](CCC(N)=O)NC(=O)[C@H](CCCCN)NC(=O)[C@H](CCC(=O)O)NC(=O)[C@H](CCCCN)NC(=O)[C@H](CCC(=O)O)NC(=O)[C@H](CCC(N)=O)NC(=O)[C@H](CCCCN)NC(=O)[C@H](CCC(=O)O)NC(=O)[C@@H](NC(=O)[C@H](CCC(=O)O)NC(=O)[C@@H](NC(=O)[C@H](CCSC)NC(=O)[C@H](CCCCN)NC(=O)[C@H](CCCN=C(N)N)NC(=O)[C@H](CC(C)C)NC(=O)[C@H](CC(C)C)NC(=O)[C@H](CC(C)C)NC(=O)[C@@H](NC(=O)[C@@H]1CCCN1C(=O)[C@H](CC(C)C)NC(=O)[C@H](CC(=O)O)NC(=O)[C@@H](NC(=O)[C@H](CO)NC(=O)[C@@H](NC(=O)[C@@H]1CCCN1C(=O)[C@@H]1CCCN1C(=O)CNC(=O)[C@@H]1CCC(=O)N1)[C@@H](C)CC)[C@@H](C)CC)[C@@H](C)CC)[C@@H](C)CC)[C@@H](C)CC)[C@@H](C)O)C(=O)O,88%,15.6 nM,72%,> 64,> 1000 nM,91%,66%,10%,–
